Laboratory results as given in patent US11883381B2, “ASH1L inhibitors and methods of treatment therewith” (The Regents of the University of Michigan, priority 2016, dated 2024).

Tests used:
[1] = molecular target: T1, ASH1L SET-BAH construct (amino acids 2069-2833) (Homo sapiens, UniProt Q9NR48); experiment: ASH1L histone methyltransferase assay (KMTase assay); assay type: biochemical; conditions: Table 6 section headings give the IC50 class; assay not given
T1 construct: ASH1L SET-BAH construct (amino acids 2069-2833) at 0.25 μM was incubated with 0.7 μM SAM; MOCR fusion (TEV-cleavable); made in house; host or cells: E. coli BL21(DE3) T1R
Protocol: ASH1L Histone Methyltransferase Assay (KMTase Assay)
The reactions were stopped by spotting 5 μL of the reaction mixture on P81 cellulose squares (Reaction Biology). The P81 squares were dried for 45 min and washed five times with 50 mM sodium bicarbonate (pH 9.0), 10 min per wash. The P81 squares were then dried for 1 h, added to 10 mL of Ultima Gold scintillation cocktail (PerkinElmer), and analyzed using a Beckman scintillation counter.

[2] = tested on: MLL fusion target genes (Hoxa cluster, Meis1) in MLL-AF9 cells; experiment: Quantitative RT-PCR of MLL fusion target genes, MLL-AF9 cells; assay type: cell-based, mouse; conditions: for Expression of MLL fusion target genes (Hoxa cluster, Meis1): MLL-AF9 cells, normalized to β-actin
Protocol: (§1) Total RNA was extracted from cells using the RNeasy mini kit (QIAGEN), and then 100-2000 ng of total RNA was reverse transcribed using the High Capacity cDNA Reverse Transcription Kit (Applied Biosystems) according to the manufacturer's protocol. Real-time PCR was performed using a CFX96 Real-Time PCR Detection System (Biorad). TaqMan Gene Expression Master Mix and TaqMan Gene Expression Assays for mouse Gapdh (Mm99999915), mouse Ash1l (Mm00467322), mouse Hoxa7 (Mm00657963), mouse Hoxa9 (Mm00439364), mouse Hoxa10 (Mm00433966), mouse Meis1 (Mm00487664), and mouse B-actin (Mm00607939) were purchased from Thermo Fisher. Relative quantification of each gene transcript was carried out using the ΔΔCt method as described in the Biorad Real-Time PCR Applications Guide.

[3] = tested on: Hoxa cluster, Meis1 genes in control cell line HM-2; experiment: Quantitative RT-PCR of MLL fusion target genes, HM-2 control cell line; assay type: cell-based, mouse; conditions: normalized to β-actin
Protocol: as §1

[4] = tested on: murine bone marrow cells transformed with MLL-AF9 (MA9); experiment: Cell viability (MTT) assay, MLL-AF9 transformed murine bone marrow cells; assay type: cell-based; conditions: 8 days of treatment
Protocol: (§2) MA9 (MLL-AF9 transformed), HM2 (Hoxa9/Meis1 transformed) murine bone marrow cells (BMC), MV4;11 and MOL13 human leukemia cells were plated at 1×10^5 cells/ml in 24-well plates, treated with 0.25% DMSO or compounds and cultured at 37° C. for 12 days. Every four days, the volume corresponding to 1×10^5 cells of DMSO-treated cells was spun down and resuspended in fresh media with fresh compound. At day 0 and each four day interval, 100 μl aliquots of the cell suspension were transferred to 96-well plates in quadruplicates. The quadruplicate samples were incubated for 4 days at 37° C., and then an MTT cell proliferation assay kit (Roche) was used to measure viable cells. Absorbance was read at 570 nm using a PHERAstar (BMG) microplate reader.

MLL-AF9 cells = experiment: Differentiation (cytospin/Wright-Giemsa staining), MLL-AF9 cells; assay type: cell-based, mouse
Protocol: Cytospin/Wrigtht-Giemsa Staining
1×10^5 MA9 mouse BMCs treated with compounds were harvested and placed in a Shandon EZ Single Cytofunnel (Thermo Fisher). Samples were centrifuged at 600 rpm for 5 min. The slides were air dried before staining with a Hema-3 kit (Thermo Fisher).

[5] = tested on: HM-2 (Hoxa9/Meis1) negative control cell line; experiment: Differentiation, HM-2 control cell line; assay type: cell-based, murine; conditions: negative control cell line HM-2
[6] = tested on: MV4;11 cells (expressing MLL-AF4); experiment: Cell viability (MTT) assay, MV4;11 cells; assay type: cell-based, human; conditions: 4 days of treatment
Protocol: as §2

[7] = tested on: MOLM13 cells expressing MLL-AF9; experiment: Cell viability (MTT) assay, MOLM13 cells; assay type: cell-based, human; conditions: 4 days of treatment
Protocol: as §2

[8] = tested on: human acute leukemia cells with various MLL translocations; experiment: Cell proliferation in a panel of human acute leukemia cells; assay type: cell-based
Protocol: as §2

ASH1L = molecular target: T2, ASH1L (Homo sapiens, UniProt Q9NR48); experiment: ASH1L degradation in HeLa cells; assay type: cell-based; conditions: 0.05-50 μM
T2 construct: endogenous in cells; host or cells: HeLa

| SMILES | IC50 [1] [µM] | further results |
| --- | --- | --- |
| NC(=S)c1cccc(-c2cccc3[nH]ccc23)c1 [Compound 34] | > 100 |  |
| NC(=S)c1ccc(O)c(-c2cccc3[nH]ncc23)c1 [Compound 35] | > 100 |  |
| NC(=S)c1cccc(-c2c[nH]c3ccc(O)cc23)c1 [Compound 69] |  | Expression of MLL fusion target genes (Hoxa cluster, Meis1) [2]: does not affect gene expression; Expression of MLL fusion target genes (Hoxa cluster, Meis1) [3]: does not affect gene expression |
| NC(=S)c1cccc(-c2c[nH]c3ccccc23)c1 [Compound 89] | 20 to 100 |  |
| NC(=S)c1cccc(-c2cn(CCCC(F)(F)F)c3cc(CNCc4ccccc4)ccc23)c1 [Compound 120] | < 20 |  |
| NC(=S)c1cccc(-c2cn(CC(CF)CF)c3cc(N)ccc23)c1 [Compound 126, 3-(6-amino-1-(3-fluoro-2-(fluoromethyl)propyl)-1H-indol-3-yl)benzothioamide] |  | Inhibition of cell proliferation [4]: Inhibition of cell proliferation; Differentiation of cells (MLL-AF9 cells): induces differentiation; Differentiation of cells [5]: but not in negative control cell line HM-2; Expression of MLL fusion target genes (Hoxa cluster, Meis1) [2]: downregulates expression; Expression of MLL fusion target genes (Hoxa cluster, Meis1) [3]: has no effect on expression; Inhibition of cell proliferation [6]: Inhibition of cell proliferation; Inhibition of cell proliferation [7]: Inhibition of cell proliferation |
| CC(=O)Nc1ccc2c(-c3cccc(C(N)=S)c3)cn(CC(CF)CF)c2c1 [Compound 136] | < 20 |  |
| NC(=S)c1cccc(-c2cn(CC(CF)CF)c3cc(NC(=O)c4cc[nH]c4)ccc23)c1 [Compound 137] | < 20 |  |
| NC(=S)c1cccc(-c2cn(CC(CO)(C(F)F)C(F)F)c3cc(CO)ccc23)c1 [Compound 200] | < 20 |  |
| NC(=S)c1cccc(-c2cn(CC(CF)CF)c3cc(C(O)CC(F)(F)F)ccc23)c1 (stereo not drawn) [Compound 202] | < 20 |  |
| NC(=S)c1cccc(-c2cn(CC(CF)CF)c3cc(CNC(=O)c4cnc[nH]4)ccc23)c1 [Compound 203] | < 20 |  |
| NC(=O)NCc1ccc2c(-c3cccc(C(N)=S)c3)cn(CC(CF)CF)c2c1 [Compound 204] | < 20 |  |
| NC(=S)c1cccc(-c2cn(CC(CF)CF)c3cc(CNC(=O)CC(F)(F)F)ccc23)c1 [Compound 206] | < 20 |  |
| NC(=S)c1cccc(-c2cn(C(C(F)(F)F)C(F)(F)F)c3cc(CO)ccc23)c1 [Compound 207] | < 20 |  |
| NC(=S)c1cccc(-c2cn(CC(CO)(C(F)F)C(F)F)c3cc(C(O)CF)ccc23)c1 (stereo not drawn) [Compound 209] | < 20 |  |
| NC(=S)c1cccc(-c2cn(-c3ccc[nH]3)c3cc(CO)ccc23)c1 [Compound 220] | < 20 |  |
| NC(=S)c1cccc(-c2cn(CCCC(F)(F)F)c3cc(-c4ccn[nH]4)ccc23)c1 [Compound 260] |  | Expression of MLL fusion target genes (Hoxa9, Hoxa10 and Meis1) ([2]; MLL-AF9 transformed murine leukemia cells): downregulates expression; Cell proliferation [8]: inhibits cell proliferation |
| NC(=S)c1cccc(-c2cn(CC(CF)CF)c3cc(NC(=O)CCOCCOCCOCCOc4cccc5c4C(=O)N(C4CCC(=O)NC4=O)C5=O)ccc23)c1 (stereo not drawn) [Compound 301] | < 20 | Degradation of ASH1L (ASH1L): Degradation of ASH1L induced |
